Patent EP4722207A1, “OXOISOINDOLINYL-SUBSTITUTED TETRAHYDROPYRIMIDINEDIONE DERIVATIVE AND USE THEREOF” (Gluetacs Therapeutics (Shanghai) Co., Ltd., priority 2023, dated 2024)

Tests used:
Type in all cases: cell-based
WEE1 = target: T1, WEE1 (Homo sapiens, UniProt P30291+Q96SW2); test: Western-blot assay, substrate protein degradation in hPBMCs: WEE1; details: for WEE1 substrate protein remaining %: compounds at 50 nM and 500 nM, 24 hours; for substrate protein remaining % WEE1: 24 hours of compound treatment, 50 nM and 500 nM
T1 construct: effects of the compounds of the present disclosure on the expression of target proteins in cells; endogenous in cells; host or cells: human PBMCs (hPBMCs)
Method: (§1) Conventional Western blot assay was performed to evaluate the effects of the compounds of the present disclosure on the expression of target proteins in cells. • (1) Cell Seeding and Protein Harvesting: Human peripheral blood mononuclear cells (hPBMCs) at a density of 1x10^6 cells/mL were thawed according to the PBMC Recovery Protocol (Milecell Biotechnologies Inc, Shanghai). […] After 24 hours of compounds treatment, cells were harvested and lysed in RIPA protein lysate containing protease inhibitors on ice for 30 min, followed by centrifugation. The supernatant was aspirated as the extracted total cell protein. The protein concentration of the supernatant was determined using the conventional BCA (Bicinchoninic Acid) assay. • (2) To the collected supernatant, 5X SDS sample loading buffer was added, followed by denaturation at 95°C for 5 minutes. The denatured samples were then separated by SDS-PAGE electrophoresis on a polyacrylamide gel. Proteins were transferred to a nitrocellulose membrane (0.45 µm NC membrane), blocked with blocking buffer at room temperature for 1 hour, and subjected to antibody incubation and development procedures according to the antibody manufacturer's instructions (Cell Signaling Technology).
(§2) Half-Maximal Degradation Concentration value (the drug concentration required for degrading proteins by 50%, abbreviated as DC50) reads method: comparing the grayscale values of Western blot bands from drug-treated samples with those from blank DMSO-treated controls, and identifying the drug concentration range at which the grayscale value is half that of the DMSO-treated control bands.
(§3) DC50 values can be calculated using ImageJ software to measure grayscale values of Western blot bands from drug-treated samples. The concentration-response curve is fitted to estimate the drug concentration corresponding to half the grayscale value.
(§4) Target protein remaining (%) refers to the percentage of target protein remaining in cells after treatment with protein degrader compounds.
(§5) Calculation method for target protein remaining (%): Use ImageJ software to measure grayscale values of Western blot bands from drug (protein degrader)-treated samples. The grayscale value of drug-treated bands is divided by that of internal control protein bands, and the resulting quotient is normalized to obtain the relative percentage of remaining target protein after protein degrader treatment. Target protein degradation rate(%) = 1−target protein remaining(%). [formula]

IKZF1 = target: T2, IKZF1 (Homo sapiens, UniProt Q13422+Q96SW2); test: Western-blot assay, substrate protein degradation in hPBMCs: IKZF1; details: for IKZF1 substrate protein remaining %: compounds at 50 nM and 500 nM, 24 hours; for substrate protein remaining % IKZF1: 24 hours of compound treatment, 50 nM and 500 nM
T2 construct: effects of the compounds of the present disclosure on the expression of target proteins in cells; endogenous in cells; host or cells: human PBMCs (hPBMCs)
Method: as §1, §2, §3, §4, §5

IKZF2 = target: T3, IKZF2 (Homo sapiens, UniProt Q96SW2+Q9UKS7); test: Western-blot assay, substrate protein degradation in hPBMCs: IKZF2; details: for IKZF2 substrate protein remaining %: compounds at 50 nM and 500 nM, 24 hours; for substrate protein remaining % IKZF2: 24 hours of compound treatment, 50 nM and 500 nM
T3 construct: effects of the compounds of the present disclosure on the expression of target proteins in cells; endogenous in cells; host or cells: human PBMCs (hPBMCs)
Method: as §1, §2, §3, §4, §5

IKZF3 = target: T4, IKZF3 (Homo sapiens, UniProt Q96SW2+Q9UKT9); test: Western-blot assay, substrate protein degradation in hPBMCs: IKZF3; details: for IKZF3 substrate protein remaining %: compounds at 50 nM and 500 nM, 24 hours; for substrate protein remaining % IKZF3: 24 hours of compound treatment, 50 nM and 500 nM
T4 construct: effects of the compounds of the present disclosure on the expression of target proteins in cells; endogenous in cells; host or cells: human PBMCs (hPBMCs)
Method: as §1, §2, §3, §4, §5

CK1α = target: T5, CK1α (Homo sapiens, UniProt P48729+Q96SW2); test: Western-blot assay, substrate protein degradation in hPBMCs: CK1α; details: for CK1α substrate protein remaining %: compounds at 50 nM and 500 nM, 24 hours; for substrate protein remaining % CK1α: 24 hours of compound treatment, 50 nM and 500 nM
T5 construct: effects of the compounds of the present disclosure on the expression of target proteins in cells; endogenous in cells; host or cells: human PBMCs (hPBMCs)
Method: as §1, §2, §3, §4, §5

GSPT1 = target: T6, GSPT1 (Homo sapiens, UniProt P15170+Q96SW2); test: Western-blot assay, substrate protein degradation in hPBMCs: GSPT1; details: for GSPT1 substrate protein remaining %: compounds at 50 nM and 500 nM, 24 hours; for substrate protein remaining % GSPT1: 24 hours of compound treatment, 50 nM and 500 nM
T6 construct: effects of the compounds of the present disclosure on the expression of target proteins in cells; endogenous in cells; host or cells: human PBMCs (hPBMCs)
Method: as §1, §2, §3, §4, §5

T5 sequence (P48729 whole entry): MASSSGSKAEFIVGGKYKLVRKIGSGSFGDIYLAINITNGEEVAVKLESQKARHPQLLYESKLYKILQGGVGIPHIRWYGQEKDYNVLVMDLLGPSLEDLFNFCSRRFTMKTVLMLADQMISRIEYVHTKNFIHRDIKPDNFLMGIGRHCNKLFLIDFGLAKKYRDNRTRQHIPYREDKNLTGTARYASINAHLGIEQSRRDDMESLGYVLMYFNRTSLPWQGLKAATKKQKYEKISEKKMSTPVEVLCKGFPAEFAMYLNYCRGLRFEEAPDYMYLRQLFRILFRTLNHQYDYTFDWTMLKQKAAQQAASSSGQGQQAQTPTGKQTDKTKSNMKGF
T5 sequence (Q96SW2 whole entry): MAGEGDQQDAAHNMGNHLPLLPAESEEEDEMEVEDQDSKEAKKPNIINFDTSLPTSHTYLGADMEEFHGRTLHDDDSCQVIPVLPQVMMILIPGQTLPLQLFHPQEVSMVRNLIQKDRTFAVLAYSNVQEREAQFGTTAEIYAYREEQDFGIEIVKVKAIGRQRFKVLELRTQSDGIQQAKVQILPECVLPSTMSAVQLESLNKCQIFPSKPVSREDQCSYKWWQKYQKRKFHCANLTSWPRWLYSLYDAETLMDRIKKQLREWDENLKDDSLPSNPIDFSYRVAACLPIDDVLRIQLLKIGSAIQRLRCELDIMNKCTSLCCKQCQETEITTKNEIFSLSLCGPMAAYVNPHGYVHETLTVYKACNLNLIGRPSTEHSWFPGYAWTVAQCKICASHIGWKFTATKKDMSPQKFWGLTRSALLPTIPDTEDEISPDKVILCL
T5 sequence (Q16531 whole entry partner): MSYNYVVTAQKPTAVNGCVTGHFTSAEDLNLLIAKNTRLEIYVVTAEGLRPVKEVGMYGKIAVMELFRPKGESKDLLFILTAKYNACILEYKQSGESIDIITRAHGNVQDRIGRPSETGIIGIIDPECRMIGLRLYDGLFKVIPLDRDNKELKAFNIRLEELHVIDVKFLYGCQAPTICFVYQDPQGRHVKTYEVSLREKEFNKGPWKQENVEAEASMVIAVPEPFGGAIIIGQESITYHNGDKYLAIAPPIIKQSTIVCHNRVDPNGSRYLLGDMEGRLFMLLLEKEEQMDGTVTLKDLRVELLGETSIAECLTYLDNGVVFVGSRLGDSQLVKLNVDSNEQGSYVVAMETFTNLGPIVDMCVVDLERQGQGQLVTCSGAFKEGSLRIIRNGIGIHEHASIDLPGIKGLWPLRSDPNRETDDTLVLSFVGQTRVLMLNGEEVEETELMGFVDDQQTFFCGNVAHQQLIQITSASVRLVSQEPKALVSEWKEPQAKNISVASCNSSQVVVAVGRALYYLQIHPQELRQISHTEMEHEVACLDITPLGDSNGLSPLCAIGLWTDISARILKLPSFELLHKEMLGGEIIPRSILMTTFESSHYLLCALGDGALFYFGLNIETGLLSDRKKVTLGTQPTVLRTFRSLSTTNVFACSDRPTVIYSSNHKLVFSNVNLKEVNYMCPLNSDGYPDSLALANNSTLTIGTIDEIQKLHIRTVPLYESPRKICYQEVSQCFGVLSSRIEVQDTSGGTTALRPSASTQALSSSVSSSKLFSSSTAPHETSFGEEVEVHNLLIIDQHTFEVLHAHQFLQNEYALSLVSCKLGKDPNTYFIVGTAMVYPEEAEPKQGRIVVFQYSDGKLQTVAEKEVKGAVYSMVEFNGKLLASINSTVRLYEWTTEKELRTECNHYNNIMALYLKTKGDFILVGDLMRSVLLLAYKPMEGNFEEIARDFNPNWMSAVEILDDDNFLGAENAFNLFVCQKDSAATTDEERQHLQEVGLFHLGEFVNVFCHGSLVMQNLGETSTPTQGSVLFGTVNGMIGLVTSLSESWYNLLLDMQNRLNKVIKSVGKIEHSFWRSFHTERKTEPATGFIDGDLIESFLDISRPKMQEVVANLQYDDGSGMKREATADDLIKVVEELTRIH
T1 sequence (P30291 whole entry): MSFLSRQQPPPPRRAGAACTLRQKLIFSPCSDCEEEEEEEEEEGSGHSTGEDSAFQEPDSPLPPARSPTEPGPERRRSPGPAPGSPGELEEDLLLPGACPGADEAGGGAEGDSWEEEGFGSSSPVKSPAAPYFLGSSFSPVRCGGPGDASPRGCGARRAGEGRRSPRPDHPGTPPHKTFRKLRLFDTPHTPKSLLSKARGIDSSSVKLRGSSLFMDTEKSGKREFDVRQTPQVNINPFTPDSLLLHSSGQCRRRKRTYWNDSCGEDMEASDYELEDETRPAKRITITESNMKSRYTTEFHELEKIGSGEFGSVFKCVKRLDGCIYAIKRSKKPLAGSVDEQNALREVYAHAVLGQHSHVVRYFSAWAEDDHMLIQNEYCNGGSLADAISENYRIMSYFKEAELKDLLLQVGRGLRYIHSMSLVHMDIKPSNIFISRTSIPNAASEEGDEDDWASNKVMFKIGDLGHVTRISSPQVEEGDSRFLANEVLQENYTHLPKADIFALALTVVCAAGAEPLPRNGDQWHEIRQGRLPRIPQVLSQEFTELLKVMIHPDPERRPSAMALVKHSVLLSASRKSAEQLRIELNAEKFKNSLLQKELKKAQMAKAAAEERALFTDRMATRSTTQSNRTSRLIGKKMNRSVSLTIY
T1 sequence (Q96SW2 whole entry): as the sequence (Q96SW2 whole entry) above
T1 sequence (Q16531 whole entry partner): as the sequence (Q16531 whole entry partner) above
T3 sequence (Q9UKS7 whole entry): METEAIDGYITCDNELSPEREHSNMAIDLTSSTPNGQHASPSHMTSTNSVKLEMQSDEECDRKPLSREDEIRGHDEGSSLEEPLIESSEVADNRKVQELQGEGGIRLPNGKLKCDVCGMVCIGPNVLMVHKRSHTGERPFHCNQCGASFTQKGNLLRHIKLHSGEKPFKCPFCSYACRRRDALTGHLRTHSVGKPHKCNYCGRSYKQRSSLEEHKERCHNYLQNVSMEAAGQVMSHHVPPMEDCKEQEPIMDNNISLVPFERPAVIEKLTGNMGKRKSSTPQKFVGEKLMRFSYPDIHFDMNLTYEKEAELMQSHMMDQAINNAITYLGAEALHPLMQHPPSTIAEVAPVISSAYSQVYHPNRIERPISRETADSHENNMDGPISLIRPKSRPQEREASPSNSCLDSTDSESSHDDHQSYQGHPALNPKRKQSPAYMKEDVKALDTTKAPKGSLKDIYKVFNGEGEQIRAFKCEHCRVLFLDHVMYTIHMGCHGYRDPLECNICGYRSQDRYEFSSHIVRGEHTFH
T3 sequence (Q96SW2 whole entry): as the sequence (Q96SW2 whole entry) above
T3 sequence (Q16531 whole entry partner): as the sequence (Q16531 whole entry partner) above
T4 sequence (Q9UKT9 whole entry): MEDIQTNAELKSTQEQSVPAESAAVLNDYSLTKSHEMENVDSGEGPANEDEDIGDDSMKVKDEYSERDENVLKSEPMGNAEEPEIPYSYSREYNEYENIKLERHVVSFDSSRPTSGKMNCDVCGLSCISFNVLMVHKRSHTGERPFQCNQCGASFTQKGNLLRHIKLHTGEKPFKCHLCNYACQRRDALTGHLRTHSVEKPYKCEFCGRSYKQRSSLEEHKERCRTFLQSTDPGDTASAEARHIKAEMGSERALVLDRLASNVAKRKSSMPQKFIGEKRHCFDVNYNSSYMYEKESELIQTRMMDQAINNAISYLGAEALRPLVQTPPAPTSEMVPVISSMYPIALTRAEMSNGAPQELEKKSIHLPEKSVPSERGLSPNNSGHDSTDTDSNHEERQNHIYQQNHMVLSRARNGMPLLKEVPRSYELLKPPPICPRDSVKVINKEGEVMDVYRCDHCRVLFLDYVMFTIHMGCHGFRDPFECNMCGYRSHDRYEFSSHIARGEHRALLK
T4 sequence (Q96SW2 whole entry): as the sequence (Q96SW2 whole entry) above
T4 sequence (Q16531 whole entry partner): as the sequence (Q16531 whole entry partner) above
T2 sequence (Q13422 whole entry): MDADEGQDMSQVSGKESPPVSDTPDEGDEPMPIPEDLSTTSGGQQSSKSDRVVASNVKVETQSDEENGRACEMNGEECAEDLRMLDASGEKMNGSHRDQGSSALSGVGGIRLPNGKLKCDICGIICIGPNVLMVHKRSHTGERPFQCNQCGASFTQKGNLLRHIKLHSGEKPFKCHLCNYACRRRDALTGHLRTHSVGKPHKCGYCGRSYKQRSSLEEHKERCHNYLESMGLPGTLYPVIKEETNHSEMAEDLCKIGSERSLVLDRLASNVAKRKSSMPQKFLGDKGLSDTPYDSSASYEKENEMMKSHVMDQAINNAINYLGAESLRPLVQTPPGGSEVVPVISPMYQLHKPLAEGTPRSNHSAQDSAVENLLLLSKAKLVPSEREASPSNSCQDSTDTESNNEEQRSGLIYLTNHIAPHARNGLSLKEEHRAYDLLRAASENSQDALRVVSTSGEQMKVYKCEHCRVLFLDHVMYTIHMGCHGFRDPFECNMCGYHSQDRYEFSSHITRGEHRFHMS
T2 sequence (Q96SW2 whole entry): as the sequence (Q96SW2 whole entry) above
T2 sequence (Q16531 whole entry partner): as the sequence (Q16531 whole entry partner) above

Row | Compound | WEE1 substrate protein remaining % (WEE1) | IKZF1 substrate protein remaining % (IKZF1) | IKZF2 substrate protein remaining % (IKZF2) | IKZF3 substrate protein remaining % (IKZF3) | CK1α substrate protein remaining % (CK1α) | GSPT1 substrate protein remaining % (GSPT1) | substrate protein remaining % WEE1 (WEE1) | substrate protein remaining % IKZF1 (IKZF1) | substrate protein remaining % IKZF2 (IKZF2) | substrate protein remaining % IKZF3 (IKZF3) | substrate protein remaining % CK1α (CK1α) | substrate protein remaining % GSPT1 (GSPT1)
1 | O=C1CCN(N2C(=O)c3ccc(CN4C5CCC4CN(C(c4ccccc4)c4ccccc4)C5)cc3C2=O)C(=O)N1 [GT-06455, 5-((3-benzhydryl-3,8-diazabicyclo[3.2.1]octan-8-yl)methyl)-2-(2,4-dioxotetrahydropyrimidin-1(2H)-yl)isoindoline-1,3-dione] | A ("A" is defined as 0% ≤ substrate protein remaining % ≤ 80%) | B ("B" is defined as 80%< substrate protein remaining %≤ 100%) | B ("B" is defined as 80%< substrate protein remaining %≤ 100%) | B ("B" is defined as 80%< substrate protein remaining %≤ 100%) | B ("B" is defined as 80%< substrate protein remaining %≤ 100%) | B ("B" is defined as 80%< substrate protein remaining %≤ 100%) | – | – | – | – | – | –
2 | O=C1CCN(N2Cc3cc(CN4CC=C(c5ccnc(F)c5F)CC4)ccc3C2=O)C(=O)N1 [GT-06397, 1-(5-((2',3'-difluoro-3,6-dihydro-[4,4'-bipyridin]-1(2H)-yl)methyl)-1-oxoisoindolin-2-yl)dihydropyrimidine-2,4(1H,3H)-dione] | A ("A" is defined as 0% ≤ substrate protein remaining % ≤ 80%) | B ("B" is defined as 80%< substrate protein remaining %≤ 100%) | A ("A" is defined as 0% ≤ substrate protein remaining % ≤ 80%) | B ("B" is defined as 80%< substrate protein remaining %≤ 100%) | B ("B" is defined as 80%< substrate protein remaining %≤ 100%) | A ("A" is defined as 0% ≤ substrate protein remaining % ≤ 80%) | – | – | – | – | – | –
3 | O=C1CCN(N2Cc3cc(CN4CCN(c5nc(Cl)nc6ccsc56)CC4)ccc3C2=O)C(=O)N1 [GT-08444, 1-(5-((4-(2-chlorothieno[3,2-d]pyrimidin-4-yl)piperazin-1-yl)methyl)-1-oxoisoindolin-2-yl)dihydropyrimidine-2,4(1H,3H)-dione] | – | – | – | – | – | – | A (0% ≤ substrate protein remaining % ≤ 80%) | B (80%< substrate protein remaining %≤ 100%) | B (80%< substrate protein remaining %≤ 100%) | B (80%< substrate protein remaining %≤ 100%) | B (80%< substrate protein remaining %≤ 100%) | B (80%< substrate protein remaining %≤ 100%)
4 | CC1(C)CCC(CN2CC3CCC2CN3Cc2ccc3c(c2)C(=O)N(N2CCC(=O)NC2=O)C3=O)=C(c2ccc(Cl)cc2)C1 (stereo not drawn) [GT-07300, 5-((5-((4'-chloro-5,5-dimethyl-3,4,5,6-tetrahydro-[1,1'-biphenyl]-2-yl)methyl)-2,5-diazabicyclo[2.2.2]octan-2-yl)methyl)-2-(2,4-dioxotetrahydropyrimidin-1(2H)-yl)isoindoline-1,3-dione] | – | – | – | – | – | – | A (0% ≤ substrate protein remaining % ≤ 80%) | B (80%< substrate protein remaining %≤ 100%) | B (80%< substrate protein remaining %≤ 100%) | B (80%< substrate protein remaining %≤ 100%) | B (80%< substrate protein remaining %≤ 100%) | B (80%< substrate protein remaining %≤ 100%)
5 | CC1(C)CCC(CN2CCN(Cc3ccc4c(c3)C(=O)N(N3CCC(=O)NC3=O)C4=O)C(C(F)(F)F)C2)=C(c2ccc(Cl)cc2)C1 (stereo not drawn) [GT-07301, 5-((4-((4'-chloro-5,5-dimethyl-3,4,5,6-tetrahydro-[1,1'-biphenyl]-2-yl)methyl)-2-(trifluoromethyl)piperazin-1-yl)methyl)-2-(2,4-dioxotetrahydropyrimidin-1(2H)-yl)isoindoline-1,3-dione] | – | – | – | – | – | – | B (80%< substrate protein remaining %≤ 100%) | B (80%< substrate protein remaining %≤ 100%) | B (80%< substrate protein remaining %≤ 100%) | B (80%< substrate protein remaining %≤ 100%) | B (80%< substrate protein remaining %≤ 100%) | A (0% ≤ substrate protein remaining % ≤ 80%)
6 | O=C1CCN(N2Cc3cc(CN4CCN(c5ccc(Br)cc5)CC4)ccc3C2=O)C(=O)N1 [GT-06768, 1-(5-((4-(4-bromophenyl)piperazin-1-yl)methyl)-1-oxoisoindolin-2-yl)dihydropyrimidine-2,4(1H,3H)-dione] | A ("A" is defined as 0% ≤ substrate protein remaining % ≤ 80%) | B ("B" is defined as 80%< substrate protein remaining %≤ 100%) | B ("B" is defined as 80%< substrate protein remaining %≤ 100%) | A ("A" is defined as 0% ≤ substrate protein remaining % ≤ 80%) | A ("A" is defined as 0% ≤ substrate protein remaining % ≤ 80%) | A ("A" is defined as 0% ≤ substrate protein remaining % ≤ 80%) | – | – | – | – | – | –
7 | O=C1CCN(N2Cc3cc(CN4CCC(c5noc6ccccc56)CC4)ccc3C2=O)C(=O)N1 [GT-07642, 1-(5-((4-(benzo[d]isoxazol-3-yl)piperidin-1-yl)methyl)-1-oxoisoindolin-2-yl)dihydropyrimidine-2,4(1H,3H)-dione] | – | – | – | – | – | – | B (80%< substrate protein remaining %≤ 100%) | B (80%< substrate protein remaining %≤ 100%) | B (80%< substrate protein remaining %≤ 100%) | B (80%< substrate protein remaining %≤ 100%) | B (80%< substrate protein remaining %≤ 100%) | A (0% ≤ substrate protein remaining % ≤ 80%)
8 | O=C1CCN(N2C(=O)c3ccc(CN4CC(c5ccnc6cc(F)ccc56)C4)cc3C2=O)C(=O)N1 [GT-07718, 2-(2,4-dioxotetrahydropyrimidin-1(2H)-yl)-5-((3-(7-fluoroquinolin-4-yl)azetidin-1-yl)methyl)isoindoline-1,3-dione] | – | – | – | – | – | – | B (80%< substrate protein remaining %≤ 100%) | B (80%< substrate protein remaining %≤ 100%) | B (80%< substrate protein remaining %≤ 100%) | A (0% ≤ substrate protein remaining % ≤ 80%) | A (0% ≤ substrate protein remaining % ≤ 80%) | A (0% ≤ substrate protein remaining % ≤ 80%)
9 | O=C1CCN(N2C(=O)c3ccc(CN4CCN(c5ccccc5Cl)CC4)cc3C2=O)C(=O)N1 [GT-06726, 5-((4-(2-chlorophenyl)piperazin-1-yl)methyl)-2-(2,4-dioxotetrahydropyrimidin-1(2H)-yl)isoindoline-1,3-dione] | A ("A" is defined as 0% ≤ substrate protein remaining % ≤ 80%) | B ("B" is defined as 80%< substrate protein remaining %≤ 100%) | A ("A" is defined as 0% ≤ substrate protein remaining % ≤ 80%) | A ("A" is defined as 0% ≤ substrate protein remaining % ≤ 80%) | A ("A" is defined as 0% ≤ substrate protein remaining % ≤ 80%) | B ("B" is defined as 80%< substrate protein remaining %≤ 100%) | – | – | – | – | – | –
10 | O=C1CCN(N2Cc3cc(CN4CCC(n5c(=O)[nH]c6cc(F)ccc65)CC4)ccc3C2=O)C(=O)N1 [GT-07579, 1-(5-((4-(5-fluoro-2-oxo-2,3-dihydro-1H-benzo[d]imidazol-1-yl)piperidin-1-yl)methyl)-1-oxoisoindolin-2-yl)dihydropyrimidine-2,4(1H,3H)-dione] | – | – | – | – | – | – | A (0% ≤ substrate protein remaining % ≤ 80%) | A (0% ≤ substrate protein remaining % ≤ 80%) | A (0% ≤ substrate protein remaining % ≤ 80%) | B (80%< substrate protein remaining %≤ 100%) | B (80%< substrate protein remaining %≤ 100%) | A (0% ≤ substrate protein remaining % ≤ 80%)
